According to doi:10.1101/2024.08.19.608619, “Discovery of potent SARS-CoV-2 nsp3 macrodomain inhibitors uncovers lack of translation to cellular antiviral response” (bioRxiv, 2024):
Values after ≈ are worked out from the molar mass of the structure shown. Values joined by “and” are separate entries in the source; they are usually repeats but may differ in a detail not shown here. Equal values may be shown once. Read-outs that look alike come from different tables or passages of the source.

How the values were obtained:
LogD = conditions: pH 7.4; In vitro LogD
CDK7/cyclinH/MAT1(h) = CDK7/cyclinH/MAT1(h) (Homo sapiens, UniProt P50613); test: biochemical; set-up: In vitro kinase panel profiling, per cent remaining kinase activity at 10 uM; conditions: atp_concentration=90, read-out: % of control remaining
From the text: (§1) We derisk potential for off-target activity by profiling the compound in a CEREP panel, a standard secondary pharmacology assessment, as well as a kinase panel to derisk a potential hinge-binding motif in our leads, and a PARP panel to derisk activity against human […]. Reassuringly, the compounds are selective, with the only off-targets being moderate human CHRM2 and KOR receptors activity associated with ASAP-0011198.

CDK9/cyclin T1(h) = CDK9/cyclin T1(h) (Homo sapiens, UniProt P50750); test: biochemical; set-up: In vitro kinase panel profiling, per cent remaining kinase activity at 10 uM; conditions: atp_concentration=45, read-out: % of control remaining
From the text: as §1

IKKα(h) = target: T1, IKKα(h) (Homo sapiens, UniProt O15111); test: biochemical; set-up: In vitro kinase panel profiling, per cent remaining kinase activity at 10 uM; conditions: atp_concentration=10, read-out: % of control remaining
T1 construct: gene CHUK
T1 sequence (O15111 1-745): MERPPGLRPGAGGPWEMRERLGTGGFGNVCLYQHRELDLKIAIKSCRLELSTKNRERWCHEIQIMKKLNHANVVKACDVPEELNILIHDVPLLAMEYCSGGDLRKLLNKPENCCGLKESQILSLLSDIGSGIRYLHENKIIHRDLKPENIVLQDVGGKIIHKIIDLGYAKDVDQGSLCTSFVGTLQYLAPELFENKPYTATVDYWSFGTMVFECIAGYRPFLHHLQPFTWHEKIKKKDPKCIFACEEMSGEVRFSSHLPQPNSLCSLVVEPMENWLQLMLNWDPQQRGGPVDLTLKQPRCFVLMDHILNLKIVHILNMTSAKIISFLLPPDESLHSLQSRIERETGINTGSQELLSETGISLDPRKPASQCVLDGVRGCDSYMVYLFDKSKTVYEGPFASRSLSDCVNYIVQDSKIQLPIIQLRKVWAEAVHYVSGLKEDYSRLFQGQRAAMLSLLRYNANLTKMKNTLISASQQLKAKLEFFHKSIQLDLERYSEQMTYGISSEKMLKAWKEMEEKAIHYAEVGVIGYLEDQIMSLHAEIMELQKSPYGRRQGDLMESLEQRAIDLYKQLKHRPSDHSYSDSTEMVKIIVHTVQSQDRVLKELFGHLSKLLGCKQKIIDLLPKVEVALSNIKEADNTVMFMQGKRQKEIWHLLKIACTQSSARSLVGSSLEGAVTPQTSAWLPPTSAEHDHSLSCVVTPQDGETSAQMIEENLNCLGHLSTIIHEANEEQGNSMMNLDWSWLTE
From the text: as §1

JAK2(h) = JAK2(h) (Homo sapiens, UniProt O60674); test: biochemical; set-up: In vitro kinase panel profiling, per cent remaining kinase activity at 10 uM; conditions: atp_concentration=45, read-out: % of control remaining
From the text: as §1

KDR(h) = KDR(h) (Homo sapiens, UniProt P35968); test: biochemical; set-up: In vitro kinase panel profiling, per cent remaining kinase activity at 10 uM; conditions: atp_concentration=90, read-out: % of control remaining
From the text: as §1

MSK2(h) = target: T2, MSK2(h) (Homo sapiens, UniProt O75676); test: biochemical; set-up: In vitro kinase panel profiling, per cent remaining kinase activity at 10 uM; conditions: atp_concentration=45, read-out: % of control remaining
T2 construct: gene RPS6KA4
From the text: as §1

PRAK(h) = target: T3, PRAK(h) (Homo sapiens, UniProt Q8IW41); test: biochemical; set-up: In vitro kinase panel profiling, per cent remaining kinase activity at 10 uM; conditions: atp_concentration=15, read-out: % of control remaining
T3 construct: gene MAPKAPK5
T3 sequence (Q8IW41 1-473): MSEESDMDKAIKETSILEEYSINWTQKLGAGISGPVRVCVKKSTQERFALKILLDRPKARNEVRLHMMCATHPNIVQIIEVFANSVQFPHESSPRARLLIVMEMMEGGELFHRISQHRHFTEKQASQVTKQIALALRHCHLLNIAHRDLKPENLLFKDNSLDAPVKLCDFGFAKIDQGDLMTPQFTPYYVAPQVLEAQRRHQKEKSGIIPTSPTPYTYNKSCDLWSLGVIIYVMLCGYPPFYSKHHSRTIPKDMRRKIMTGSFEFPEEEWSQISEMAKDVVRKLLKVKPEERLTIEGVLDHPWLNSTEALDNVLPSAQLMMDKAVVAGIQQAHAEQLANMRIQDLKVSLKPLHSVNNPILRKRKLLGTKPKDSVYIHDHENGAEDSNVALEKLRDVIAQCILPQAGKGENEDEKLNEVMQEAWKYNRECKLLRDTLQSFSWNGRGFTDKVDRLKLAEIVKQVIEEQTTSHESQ
From the text: as §1

Pim-1(h) = target: T4, Pim-1(h) (Homo sapiens, UniProt P11309); test: biochemical; set-up: In vitro kinase panel profiling, per cent remaining kinase activity at 10 uM; conditions: atp_concentration=90, read-out: % of control remaining
T4 construct: gene PIM1
From the text: as §1

Plk3(h) = Plk3(h) (Homo sapiens, UniProt Q9H4B4); test: biochemical; set-up: In vitro kinase panel profiling, per cent remaining kinase activity at 10 uM; conditions: atp_concentration=70, read-out: % of control remaining
From the text: as §1

ROCK-I(h) = target: T5, ROCK-I(h) (Homo sapiens, UniProt Q13464); test: biochemical; set-up: In vitro kinase panel profiling, per cent remaining kinase activity at 10 uM; conditions: atp_concentration=70, read-out: % of control remaining
T5 construct: gene ROCK1
From the text: as §1

p70S6K(h) = target: T6, p70S6K(h) (Homo sapiens, UniProt P23443); test: biochemical; set-up: In vitro kinase panel profiling, per cent remaining kinase activity at 10 uM; conditions: atp_concentration=15, read-out: % of control remaining
T6 construct: gene RPS6KB1
From the text: as §1

[1] = In vitro kinetic solubility; conditions: In vitro kinetic solubility, ph 7.4
[2] = Permeability Papp (AB) MDR1/MDCKII; conditions: for papp_a_to_b_mean: A to B; for perc_recovery_a_to_b_mean / perc_recovery_a_to_b_inhibitor_mean: recovery A to B; for papp_b_to_a_mean: B to A; for perc_recovery_b_to_a_mean / perc_recovery_b_to_a_inhibitor_mean: recovery B to A; for perc_recovery_a_to_b_inhibitor_mean / perc_recovery_b_to_a_inhibitor_mean: MDR1-MDCKII
[3] = In vitro MDR1-MDCKII permeability, mean
[4] = In vitro MDR1-MDCKII permeability, no inhibitor

T5 sequence (Q13464 whole entry): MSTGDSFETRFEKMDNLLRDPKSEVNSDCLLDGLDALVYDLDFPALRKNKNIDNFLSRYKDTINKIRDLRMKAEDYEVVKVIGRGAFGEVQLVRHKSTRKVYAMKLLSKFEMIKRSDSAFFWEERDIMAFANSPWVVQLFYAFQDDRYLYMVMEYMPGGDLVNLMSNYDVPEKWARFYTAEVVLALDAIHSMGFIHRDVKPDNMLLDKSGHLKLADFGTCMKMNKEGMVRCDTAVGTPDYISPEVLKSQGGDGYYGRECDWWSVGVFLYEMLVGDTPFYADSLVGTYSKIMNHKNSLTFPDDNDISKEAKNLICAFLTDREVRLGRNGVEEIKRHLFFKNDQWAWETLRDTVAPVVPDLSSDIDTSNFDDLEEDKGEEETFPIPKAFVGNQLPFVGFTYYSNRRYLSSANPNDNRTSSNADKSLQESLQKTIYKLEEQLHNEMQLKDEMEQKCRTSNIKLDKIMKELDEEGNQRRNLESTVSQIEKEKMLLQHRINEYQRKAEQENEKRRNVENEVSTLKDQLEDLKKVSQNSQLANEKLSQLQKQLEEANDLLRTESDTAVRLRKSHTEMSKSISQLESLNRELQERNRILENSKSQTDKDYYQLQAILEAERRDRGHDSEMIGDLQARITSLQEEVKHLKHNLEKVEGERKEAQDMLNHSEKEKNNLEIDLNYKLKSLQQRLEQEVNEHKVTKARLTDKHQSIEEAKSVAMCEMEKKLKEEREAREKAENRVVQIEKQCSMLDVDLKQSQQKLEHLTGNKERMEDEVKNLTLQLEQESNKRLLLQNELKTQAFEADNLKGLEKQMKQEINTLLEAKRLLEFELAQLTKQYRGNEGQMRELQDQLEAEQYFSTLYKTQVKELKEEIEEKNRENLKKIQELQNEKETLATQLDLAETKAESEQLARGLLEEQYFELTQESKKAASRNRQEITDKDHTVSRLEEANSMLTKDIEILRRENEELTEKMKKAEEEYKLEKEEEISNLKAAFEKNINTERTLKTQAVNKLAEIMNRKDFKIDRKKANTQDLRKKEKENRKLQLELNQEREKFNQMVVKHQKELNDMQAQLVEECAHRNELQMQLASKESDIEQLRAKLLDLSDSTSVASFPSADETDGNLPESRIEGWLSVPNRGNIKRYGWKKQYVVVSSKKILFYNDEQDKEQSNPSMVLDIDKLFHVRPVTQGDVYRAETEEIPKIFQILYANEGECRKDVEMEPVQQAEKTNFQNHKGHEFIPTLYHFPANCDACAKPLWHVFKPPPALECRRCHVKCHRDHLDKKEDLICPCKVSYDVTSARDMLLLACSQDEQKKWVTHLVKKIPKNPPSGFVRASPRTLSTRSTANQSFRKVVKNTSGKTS
CDK7/cyclinH/MAT1(h), sequence (P50613 whole entry): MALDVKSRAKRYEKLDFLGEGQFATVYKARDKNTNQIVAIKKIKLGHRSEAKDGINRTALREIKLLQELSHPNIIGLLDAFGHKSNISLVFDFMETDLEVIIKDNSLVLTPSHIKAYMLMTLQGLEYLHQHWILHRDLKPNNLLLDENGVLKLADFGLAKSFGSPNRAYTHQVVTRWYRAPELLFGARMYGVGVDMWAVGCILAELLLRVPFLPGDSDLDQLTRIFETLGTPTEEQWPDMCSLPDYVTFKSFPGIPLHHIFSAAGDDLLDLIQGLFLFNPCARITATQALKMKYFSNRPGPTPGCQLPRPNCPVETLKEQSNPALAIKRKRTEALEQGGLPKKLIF
CDK7/cyclinH/MAT1(h), sequence (P51946 whole entry partner): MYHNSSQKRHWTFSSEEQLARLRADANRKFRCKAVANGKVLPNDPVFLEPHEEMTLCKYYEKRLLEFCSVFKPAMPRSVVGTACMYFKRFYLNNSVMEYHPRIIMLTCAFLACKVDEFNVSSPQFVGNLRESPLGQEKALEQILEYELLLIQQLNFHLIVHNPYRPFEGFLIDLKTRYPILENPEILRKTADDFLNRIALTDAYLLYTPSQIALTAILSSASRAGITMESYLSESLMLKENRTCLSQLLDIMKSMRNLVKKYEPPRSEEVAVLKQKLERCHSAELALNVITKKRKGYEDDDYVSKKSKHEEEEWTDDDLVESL
CDK7/cyclinH/MAT1(h), sequence (P51948 whole entry partner): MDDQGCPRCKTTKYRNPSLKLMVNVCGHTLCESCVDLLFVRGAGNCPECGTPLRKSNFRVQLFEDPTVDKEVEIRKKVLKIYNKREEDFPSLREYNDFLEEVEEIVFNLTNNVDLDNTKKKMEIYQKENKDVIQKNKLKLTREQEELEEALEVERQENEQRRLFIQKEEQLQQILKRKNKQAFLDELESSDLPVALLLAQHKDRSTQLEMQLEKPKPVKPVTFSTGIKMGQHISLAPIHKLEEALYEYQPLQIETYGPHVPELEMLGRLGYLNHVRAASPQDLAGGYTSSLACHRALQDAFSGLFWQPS
CDK9/cyclin T1(h), sequence (P50750 whole entry): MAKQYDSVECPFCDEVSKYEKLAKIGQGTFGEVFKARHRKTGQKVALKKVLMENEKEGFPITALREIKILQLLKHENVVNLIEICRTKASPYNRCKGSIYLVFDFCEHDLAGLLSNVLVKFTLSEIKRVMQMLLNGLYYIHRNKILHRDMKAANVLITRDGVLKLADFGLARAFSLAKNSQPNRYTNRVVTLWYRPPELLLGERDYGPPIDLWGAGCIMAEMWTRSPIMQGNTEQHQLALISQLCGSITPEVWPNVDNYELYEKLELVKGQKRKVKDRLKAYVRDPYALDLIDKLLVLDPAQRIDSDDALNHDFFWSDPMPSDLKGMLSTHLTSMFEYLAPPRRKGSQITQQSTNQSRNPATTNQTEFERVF
CDK9/cyclin T1(h), sequence (O60563 whole entry partner): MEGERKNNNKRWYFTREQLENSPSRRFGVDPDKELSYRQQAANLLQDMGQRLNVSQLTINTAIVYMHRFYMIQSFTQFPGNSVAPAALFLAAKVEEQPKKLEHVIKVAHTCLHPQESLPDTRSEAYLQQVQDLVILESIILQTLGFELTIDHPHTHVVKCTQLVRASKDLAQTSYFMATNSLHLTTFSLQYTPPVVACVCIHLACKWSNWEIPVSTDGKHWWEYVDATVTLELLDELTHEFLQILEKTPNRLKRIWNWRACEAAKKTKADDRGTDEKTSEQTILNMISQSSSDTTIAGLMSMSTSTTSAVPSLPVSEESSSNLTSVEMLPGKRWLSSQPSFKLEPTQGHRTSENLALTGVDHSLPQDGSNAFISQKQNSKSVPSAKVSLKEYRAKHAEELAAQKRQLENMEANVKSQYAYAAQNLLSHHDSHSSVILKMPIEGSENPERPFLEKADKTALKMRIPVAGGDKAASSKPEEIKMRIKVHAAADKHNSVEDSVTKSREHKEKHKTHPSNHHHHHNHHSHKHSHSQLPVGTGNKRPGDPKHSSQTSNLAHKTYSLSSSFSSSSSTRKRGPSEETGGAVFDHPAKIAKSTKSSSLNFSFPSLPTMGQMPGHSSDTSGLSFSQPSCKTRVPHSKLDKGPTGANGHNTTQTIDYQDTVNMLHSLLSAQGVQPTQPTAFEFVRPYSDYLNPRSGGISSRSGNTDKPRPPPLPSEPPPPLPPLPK
Plk3(h), sequence (Q9H4B4 whole entry): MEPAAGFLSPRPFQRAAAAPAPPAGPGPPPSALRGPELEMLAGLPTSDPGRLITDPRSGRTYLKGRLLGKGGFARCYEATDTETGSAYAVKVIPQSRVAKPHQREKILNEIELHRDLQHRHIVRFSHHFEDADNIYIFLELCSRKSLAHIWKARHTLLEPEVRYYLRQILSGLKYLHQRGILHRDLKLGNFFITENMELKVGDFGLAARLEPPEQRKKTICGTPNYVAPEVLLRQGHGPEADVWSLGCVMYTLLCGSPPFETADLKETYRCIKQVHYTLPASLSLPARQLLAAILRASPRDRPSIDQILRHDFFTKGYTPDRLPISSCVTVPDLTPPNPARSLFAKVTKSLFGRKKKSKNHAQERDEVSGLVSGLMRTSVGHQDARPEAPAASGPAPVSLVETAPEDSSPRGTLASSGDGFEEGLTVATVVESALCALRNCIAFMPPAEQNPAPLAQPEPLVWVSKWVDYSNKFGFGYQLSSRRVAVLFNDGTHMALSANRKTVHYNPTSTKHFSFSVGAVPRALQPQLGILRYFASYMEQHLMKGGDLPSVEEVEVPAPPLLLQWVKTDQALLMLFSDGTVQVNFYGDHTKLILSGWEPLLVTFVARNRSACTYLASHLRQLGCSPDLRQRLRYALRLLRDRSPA
T2 sequence (O75676 whole entry): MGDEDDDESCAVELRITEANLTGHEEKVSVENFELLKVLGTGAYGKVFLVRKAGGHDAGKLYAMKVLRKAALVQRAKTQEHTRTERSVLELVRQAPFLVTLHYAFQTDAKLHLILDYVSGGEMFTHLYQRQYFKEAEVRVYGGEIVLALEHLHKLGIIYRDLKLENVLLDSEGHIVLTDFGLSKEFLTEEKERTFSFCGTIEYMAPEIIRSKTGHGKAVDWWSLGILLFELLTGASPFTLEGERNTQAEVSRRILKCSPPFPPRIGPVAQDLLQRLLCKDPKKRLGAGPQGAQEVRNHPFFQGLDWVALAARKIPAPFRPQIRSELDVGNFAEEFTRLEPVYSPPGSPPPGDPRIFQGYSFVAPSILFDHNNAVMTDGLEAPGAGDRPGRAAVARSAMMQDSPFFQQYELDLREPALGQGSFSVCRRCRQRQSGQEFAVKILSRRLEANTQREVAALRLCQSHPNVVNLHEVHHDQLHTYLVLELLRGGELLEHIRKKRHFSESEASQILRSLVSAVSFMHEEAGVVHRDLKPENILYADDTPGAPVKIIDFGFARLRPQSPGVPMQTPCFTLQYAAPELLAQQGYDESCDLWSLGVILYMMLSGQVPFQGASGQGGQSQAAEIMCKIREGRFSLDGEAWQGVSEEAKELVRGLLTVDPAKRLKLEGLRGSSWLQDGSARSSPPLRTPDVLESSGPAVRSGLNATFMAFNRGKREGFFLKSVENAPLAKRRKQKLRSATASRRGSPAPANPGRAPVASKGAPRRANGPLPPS

CC(C)[C@@H](Nc1ncnc2[nH]c(-c3cnn(C)c3C#N)cc12)c1ccc2c(n1)OCCO2 [ASAP-0008418]
logd (LogD): 3.4 and 3.6
remaining activity at 10 µM (CDK7/cyclinH/MAT1(h); batch_name=ASAP-0008418-001): 101%
remaining activity at 10 µM (CDK9/cyclin T1(h); batch_name=ASAP-0008418-001): 45%
remaining activity at 10 µM (IKKα(h); batch_name=ASAP-0008418-001): 111%
remaining activity at 10 µM (JAK2(h); batch_name=ASAP-0008418-001): 101%
remaining activity at 10 µM (KDR(h); batch_name=ASAP-0008418-001): 80%
remaining activity at 10 µM (MSK2(h); batch_name=ASAP-0008418-001): 103%
remaining activity at 10 µM (PRAK(h); batch_name=ASAP-0008418-001): 95%
remaining activity at 10 µM (Pim-1(h); batch_name=ASAP-0008418-001): 79%
remaining activity at 10 µM (Plk3(h); batch_name=ASAP-0008418-001): 90%
remaining activity at 10 µM (ROCK-I(h); batch_name=ASAP-0008418-001): 93%
remaining activity at 10 µM (p70S6K(h); batch_name=ASAP-0008418-001): 82%
solubility_mean [1]: 89 µM and 60 µM
papp_a_to_b_mean [2, 3]: 12.8 ×10⁻⁶ cm/s and 21.3 ×10⁻⁶ cm/s
perc_recovery_a_to_b_mean [2, 3]: 82.0% and 88.6%

CC(C)[C@H](Nc1ncnc2[nH]ccc12)c1ccc2c(c1)S(=O)(=O)CCC2 [ASAP-0008674]
logd (LogD): 2.7
remaining activity at 10 µM (CDK7/cyclinH/MAT1(h); batch_name=ASAP-0008674-002): 89%
remaining activity at 10 µM (CDK9/cyclin T1(h); batch_name=ASAP-0008674-002): 112%
remaining activity at 10 µM (IKKα(h); batch_name=ASAP-0008674-002): 92%
remaining activity at 10 µM (JAK2(h); batch_name=ASAP-0008674-002): 99%
remaining activity at 10 µM (KDR(h); batch_name=ASAP-0008674-002): 86%
remaining activity at 10 µM (MSK2(h); batch_name=ASAP-0008674-002): 92%
remaining activity at 10 µM (PRAK(h); batch_name=ASAP-0008674-002): 102%
remaining activity at 10 µM (Pim-1(h); batch_name=ASAP-0008674-002): 91%
remaining activity at 10 µM (Plk3(h); batch_name=ASAP-0008674-002): 112%
remaining activity at 10 µM (ROCK-I(h); batch_name=ASAP-0008674-002): 115%
remaining activity at 10 µM (p70S6K(h); batch_name=ASAP-0008674-002): 103%
solubility_mean [1]: 374 µM (≈ 139 µg/mL)
papp_a_to_b_mean [2, 3]: 5.5 ×10⁻⁶ cm/s
papp_a_to_b_mean [2, 4]: 0.12 ×10⁻⁶ cm/s and 0.0631 ×10⁻⁶ cm/s
papp_b_to_a_mean [2, 4]: 5.9 ×10⁻⁶ cm/s and 5.29 ×10⁻⁶ cm/s
efflux_ratio [2, 4]: 49.5 and 83.8
perc_recovery_a_to_b_mean [2, 3]: 85.4%
perc_recovery_a_to_b_mean [2, 4]: 80.0% and 78.8%
perc_recovery_b_to_a_mean [2, 4]: 76.5% and 89.6%
perc_recovery_a_to_b_inhibitor_mean ([2]; with inhibitor Cyclosporin A): 83.2%
perc_recovery_a_to_b_inhibitor_mean ([2]; with inhibitor Verapamil): 90.5%
perc_recovery_b_to_a_inhibitor_mean ([2]; with inhibitor Cyclosporin A): 87.0%
perc_recovery_b_to_a_inhibitor_mean ([2]; with inhibitor Verapamil): 86.9%

CC(C)[C@H](Nc1ncnc2[nH]c(-c3cnn(C)c3C#N)cc12)c1ccc2c(n1)OCCO2 [ASAP-0010715]
logd (LogD): 3.7
remaining activity at 10 µM (CDK7/cyclinH/MAT1(h); batch_name=ASAP-0010715-002): 98%
remaining activity at 10 µM (CDK9/cyclin T1(h); batch_name=ASAP-0010715-002): 79%
remaining activity at 10 µM (IKKα(h); batch_name=ASAP-0010715-002): 120%
remaining activity at 10 µM (JAK2(h); batch_name=ASAP-0010715-002): 115%
remaining activity at 10 µM (KDR(h); batch_name=ASAP-0010715-002): 76%
remaining activity at 10 µM (MSK2(h); batch_name=ASAP-0010715-002): 114%
remaining activity at 10 µM (PRAK(h); batch_name=ASAP-0010715-002): 84%
remaining activity at 10 µM (Pim-1(h); batch_name=ASAP-0010715-002): 98%
remaining activity at 10 µM (Plk3(h); batch_name=ASAP-0010715-002): 102%
remaining activity at 10 µM (ROCK-I(h); batch_name=ASAP-0010715-002): 115%
remaining activity at 10 µM (p70S6K(h); batch_name=ASAP-0010715-002): 125%
solubility_mean [1]: 53 µM (≈ 22.8 µg/mL)
papp_b_to_a_mean [2, 4]: 5.98 ×10⁻⁶ cm/s
perc_recovery_a_to_b_mean [2, 4]: 70.1% and 79.9%
perc_recovery_b_to_a_mean [2, 4]: 76.7%
perc_recovery_a_to_b_inhibitor_mean ([2]; with inhibitor Cyclosporin A): 75.0%
perc_recovery_b_to_a_inhibitor_mean ([2]; with inhibitor Cyclosporin A): 76.7%
